US10478425B2, “5-phenylazaindole derivative having AMPK-activating activity” (Shionogi & Co., Ltd., priority 2016, dated 2019)

Biological target: T1, Human AMPK α2β2γ1 (Homo sapiens, UniProt O43741+P54646)
T1 construct: The full length cDNAs of human AMPK β2 (NM_005399.3) and human AMPK α2 (NM_006252.3); The full length cDNAs of human AMPK β2 (NM_005399.3); the full length cDNA of human AMPK γ1 (NM_002733.3) had been inserted into pET28b(+); 6×His (N); made in house; host or cells: Escherichia coli BL21 CodonPlus (DE3)-RIL
T1 sequence (P54646 whole entry): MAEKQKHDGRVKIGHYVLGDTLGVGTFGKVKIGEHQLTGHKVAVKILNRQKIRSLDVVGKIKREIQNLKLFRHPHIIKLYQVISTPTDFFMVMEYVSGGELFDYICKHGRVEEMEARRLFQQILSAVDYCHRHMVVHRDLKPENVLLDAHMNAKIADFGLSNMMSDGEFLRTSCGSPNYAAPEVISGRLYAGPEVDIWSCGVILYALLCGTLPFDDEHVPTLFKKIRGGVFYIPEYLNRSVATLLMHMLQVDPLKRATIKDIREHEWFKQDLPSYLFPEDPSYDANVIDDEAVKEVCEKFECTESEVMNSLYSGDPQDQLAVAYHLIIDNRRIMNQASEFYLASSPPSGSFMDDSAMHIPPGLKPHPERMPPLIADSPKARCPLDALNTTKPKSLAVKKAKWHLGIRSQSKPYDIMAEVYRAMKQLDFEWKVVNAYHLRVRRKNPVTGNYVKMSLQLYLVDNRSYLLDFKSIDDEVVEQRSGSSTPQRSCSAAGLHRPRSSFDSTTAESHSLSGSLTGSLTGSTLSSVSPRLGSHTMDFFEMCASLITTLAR
T1 sequence (O43741 whole entry): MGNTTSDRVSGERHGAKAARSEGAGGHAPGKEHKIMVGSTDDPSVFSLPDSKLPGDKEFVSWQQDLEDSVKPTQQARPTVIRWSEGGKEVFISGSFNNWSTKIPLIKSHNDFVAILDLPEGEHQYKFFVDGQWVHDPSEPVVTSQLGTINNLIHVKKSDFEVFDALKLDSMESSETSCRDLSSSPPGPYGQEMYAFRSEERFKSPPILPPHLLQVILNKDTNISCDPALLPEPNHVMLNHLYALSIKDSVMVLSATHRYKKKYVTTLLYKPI
T1 sequence (P54619 whole entry partner): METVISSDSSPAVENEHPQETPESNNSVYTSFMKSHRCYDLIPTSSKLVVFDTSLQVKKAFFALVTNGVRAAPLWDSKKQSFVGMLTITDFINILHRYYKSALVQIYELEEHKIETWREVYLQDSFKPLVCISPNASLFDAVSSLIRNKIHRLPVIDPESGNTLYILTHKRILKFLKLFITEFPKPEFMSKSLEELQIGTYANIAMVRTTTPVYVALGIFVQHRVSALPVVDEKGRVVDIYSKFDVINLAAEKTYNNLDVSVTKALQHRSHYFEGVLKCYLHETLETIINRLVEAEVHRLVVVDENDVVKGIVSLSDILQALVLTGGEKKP
Test: Test Example 2: activation of phosphorylated human AMPK α2β2γ1 (mobility-shift kinase assay, FL-Peptide 7)
Format: biochemical
Settings: compound concentration showing 150% relative to the control (100%); human AMPK α2β2γ1 phosphorylated with CaMKK2
How it was run: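 His-tagged α2β2γ1 expressed in E. coli was pre-phosphorylated by GST-CaMKKβ (25 °C, 1–1.5 h), then exposed to compound for 10 min (1% DMSO). Reaction: pH 7.0 HEPES, ATP and 1.5 μM FL-Peptide 7 (final), 2 h at 25 °C. Mobility-shift conversion gave % activity increase versus compound-free control.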

| Structure (SMILES) | EC150 [nM] |
| --- | --- |
| COCCOc1ccc(-c2ccc(-c3nc4cc(O[C@@H]5CO[C@H]6[C@@H]5OC[C@H]6O)[nH]c4cc3F)cc2)nc1 [Compound I-2-52] | 7.2 |
| COCCCN1CCN(c2ccc(-c3nc4cc(O[C@@H]5CO[C@H]6[C@@H]5OC[C@H]6O)[nH]c4cc3F)cc2)CC1 [Compound I-2-58] | 56 |
| O[C@@H]1CO[C@H]2[C@@H]1OC[C@H]2Oc1cc2nc(-c3ccc(N4CCC(OC5CCNCC5)CC4)cc3)c(F)cc2[nH]1 [Compound I-2-62] | 47 |
| C[S@@](=O)(=Nc1ccc(-c2ccc(-c3nc4cc(O[C@@H]5CO[C@H]6[C@@H]5OC[C@H]6O)[nH]c4cc3F)cc2)cc1)c1ccccc1 [Compound I-1-19] | 5.8 |
| CO[C@H]1[C@@H](CO)OC[C@H]1Oc1cc2nc(-c3ccc(-c4ccc(N=S(C)(C)=O)cc4)cc3)c(F)cc2[nH]1 [Compound I-2-26] | 8.6 |
| O=C(C1CCN(c2ccc(-c3nc4cc(O[C@@H]5CO[C@H]6[C@@H]5OC[C@H]6O)[nH]c4cc3F)cc2)CC1)N1CCCC1 [Compound I-2-44] | 35 |
| CNC(=O)CCOc1ccc(-c2ccc(-c3nc4cc(O[C@@H]5CO[C@H]6[C@@H]5OC[C@H]6O)[nH]c4cc3F)cc2)cc1 [Compound I-2-54] | 1.7 |
| O[C@@H]1CO[C@H]2[C@@H]1OC[C@H]2Oc1cc2nc(-c3ccc(N4CCC(OC5CCNC5)CC4)cc3)c(F)cc2[nH]1 (stereo partly drawn) [Compound I-2-57] | 26 |
| CCO[C@H]1[C@@H](CO)OC[C@H]1Oc1cc2nc(-c3ccc(-c4ccc(N=S(C)(C)=O)cc4)cc3)c(F)cc2[nH]1 [Compound I-2-55] | 19 |
| C[S+]([O-])c1ccc(-c2ccc(-c3nc4cc(O[C@@H]5CO[C@H](CO)C5)[nH]c4cc3F)cc2)cc1 (single isomer, unassigned) [Compound I-2-06] | 0.46 |
| O[C@@H]1CO[C@H]2[C@@H]1OC[C@H]2Oc1cc2nc(-c3ccc(-c4ccc(Oc5cccnc5)cc4)cc3)c(F)cc2[nH]1 [Compound I-2-36] | 43 |
| CNC(=O)c1ccc(-c2ccc(-c3nc4cc(O[C@@H]5CO[C@H]6[C@@H]5OC[C@H]6O)[nH]c4cc3F)cc2)cc1 [Compound I-1-55] | 0.34 |
| CS(=O)(=O)N[C@H]1CC[C@H](c2ccc(-c3nc4cc(O[C@@H]5CO[C@H]6[C@@H]5OC[C@H]6O)[nH]c4cc3F)cc2)CC1 [Compound I-1-45] | 19 |
| O[C@@H]1CO[C@H]2[C@@H]1OC[C@H]2Oc1cc2nc(-c3ccc(-c4ccc(OC5CNC[C@H]5F)cc4)cc3)c(F)cc2[nH]1 (stereo partly drawn) [Compound I-2-28] | 4.4 |
| O[C@@H]1CO[C@H]2[C@@H]1OC[C@H]2Oc1cc2nc(-c3ccc(-c4ccc(OC5CNC5)cc4)cc3)c(F)cc2[nH]1 [Compound I-1-63] | 3.2 |
| CNC(=O)c1ccc(-c2ccc(-c3nc4cc(O[C@@H]5CO[C@H](CO)C5)[nH]c4cc3F)cc2)cc1 [Compound I-2-88] | 0.62 |
| COCCS(=O)(=O)c1ccc(-c2ccc(-c3nc4cc(O[C@@H]5CO[C@H]6[C@@H]5OC[C@H]6O)[nH]c4cc3F)cc2)cc1 [Compound I-2-95] | 2.6 |
| O[C@@H]1CO[C@H]2[C@@H]1OC[C@H]2Oc1cc2nc(-c3ccc(-c4ccc(CN5CCOCC5)cc4)cc3)c(F)cc2[nH]1 [Compound I-2-22] | 5.9 |
| CN1CCC(Oc2ccc(-c3ccc(-c4nc5cc(O[C@@H]6CO[C@H]7[C@@H]6OC[C@H]7O)[nH]c5cc4F)cc3)cc2)C1 (stereo partly drawn) [Compound I-1-26] | 1.5 |
| OCC1(c2ccc(-c3nc4cc(O[C@@H]5CO[C@H]6[C@@H]5OC[C@H]6O)[nH]c4cc3F)cc2)CC1 [Compound I-2-66] | 1.1 |
| CC(C)(O)/C=C/c1ccc(-c2ccc(-c3nc4cc(O[C@@H]5CO[C@H]6[C@@H]5OC[C@H]6O)[nH]c4cc3F)cc2)cc1 [Compound I-2-15] | 11 |

Same assay, conditions: maximum rate of increase in activity within the measurement range, control = 100%; read-out: Emax

| Structure (SMILES) | Emax [%] |
| --- | --- |
| COCCOc1ccc(-c2ccc(-c3nc4cc(O[C@@H]5CO[C@H]6[C@@H]5OC[C@H]6O)[nH]c4cc3F)cc2)nc1 [Compound I-2-52] | 532 |
| COCCCN1CCN(c2ccc(-c3nc4cc(O[C@@H]5CO[C@H]6[C@@H]5OC[C@H]6O)[nH]c4cc3F)cc2)CC1 [Compound I-2-58] | 514 |
| O[C@@H]1CO[C@H]2[C@@H]1OC[C@H]2Oc1cc2nc(-c3ccc(N4CCC(OC5CCNCC5)CC4)cc3)c(F)cc2[nH]1 [Compound I-2-62] | 514 |
| C[S@@](=O)(=Nc1ccc(-c2ccc(-c3nc4cc(O[C@@H]5CO[C@H]6[C@@H]5OC[C@H]6O)[nH]c4cc3F)cc2)cc1)c1ccccc1 [Compound I-1-19] | 477 |
| CO[C@H]1[C@@H](CO)OC[C@H]1Oc1cc2nc(-c3ccc(-c4ccc(N=S(C)(C)=O)cc4)cc3)c(F)cc2[nH]1 [Compound I-2-26] | 298 |
| O=C(C1CCN(c2ccc(-c3nc4cc(O[C@@H]5CO[C@H]6[C@@H]5OC[C@H]6O)[nH]c4cc3F)cc2)CC1)N1CCCC1 [Compound I-2-44] | 661 |
| CNC(=O)CCOc1ccc(-c2ccc(-c3nc4cc(O[C@@H]5CO[C@H]6[C@@H]5OC[C@H]6O)[nH]c4cc3F)cc2)cc1 [Compound I-2-54] | 633 |
| O[C@@H]1CO[C@H]2[C@@H]1OC[C@H]2Oc1cc2nc(-c3ccc(N4CCC(OC5CCNC5)CC4)cc3)c(F)cc2[nH]1 (stereo partly drawn) [Compound I-2-57] | 601 |
| CCO[C@H]1[C@@H](CO)OC[C@H]1Oc1cc2nc(-c3ccc(-c4ccc(N=S(C)(C)=O)cc4)cc3)c(F)cc2[nH]1 [Compound I-2-55] | 507 |
| C[S+]([O-])c1ccc(-c2ccc(-c3nc4cc(O[C@@H]5CO[C@H](CO)C5)[nH]c4cc3F)cc2)cc1 (single isomer, unassigned) [Compound I-2-06] | 621 |
| O[C@@H]1CO[C@H]2[C@@H]1OC[C@H]2Oc1cc2nc(-c3ccc(-c4ccc(Oc5cccnc5)cc4)cc3)c(F)cc2[nH]1 [Compound I-2-36] | 385 |
| CNC(=O)c1ccc(-c2ccc(-c3nc4cc(O[C@@H]5CO[C@H]6[C@@H]5OC[C@H]6O)[nH]c4cc3F)cc2)cc1 [Compound I-1-55] | 431 |
| CS(=O)(=O)N[C@H]1CC[C@H](c2ccc(-c3nc4cc(O[C@@H]5CO[C@H]6[C@@H]5OC[C@H]6O)[nH]c4cc3F)cc2)CC1 [Compound I-1-45] | 482 |
| O[C@@H]1CO[C@H]2[C@@H]1OC[C@H]2Oc1cc2nc(-c3ccc(-c4ccc(OC5CNC[C@H]5F)cc4)cc3)c(F)cc2[nH]1 (stereo partly drawn) [Compound I-2-28] | 398 |
| O[C@@H]1CO[C@H]2[C@@H]1OC[C@H]2Oc1cc2nc(-c3ccc(-c4ccc(OC5CNC5)cc4)cc3)c(F)cc2[nH]1 [Compound I-1-63] | 361 |
| CNC(=O)c1ccc(-c2ccc(-c3nc4cc(O[C@@H]5CO[C@H](CO)C5)[nH]c4cc3F)cc2)cc1 [Compound I-2-88] | 683 |
| COCCS(=O)(=O)c1ccc(-c2ccc(-c3nc4cc(O[C@@H]5CO[C@H]6[C@@H]5OC[C@H]6O)[nH]c4cc3F)cc2)cc1 [Compound I-2-95] | 634 |
| O[C@@H]1CO[C@H]2[C@@H]1OC[C@H]2Oc1cc2nc(-c3ccc(-c4ccc(CN5CCOCC5)cc4)cc3)c(F)cc2[nH]1 [Compound I-2-22] | 348 |
| CN1CCC(Oc2ccc(-c3ccc(-c4nc5cc(O[C@@H]6CO[C@H]7[C@@H]6OC[C@H]7O)[nH]c5cc4F)cc3)cc2)C1 (stereo partly drawn) [Compound I-1-26] | 353 |
| OCC1(c2ccc(-c3nc4cc(O[C@@H]5CO[C@H]6[C@@H]5OC[C@H]6O)[nH]c4cc3F)cc2)CC1 [Compound I-2-66] | 580 |
| CC(C)(O)/C=C/c1ccc(-c2ccc(-c3nc4cc(O[C@@H]5CO[C@H]6[C@@H]5OC[C@H]6O)[nH]c4cc3F)cc2)cc1 [Compound I-2-15] | 505 |
